Tests used:
prostate cancer = conditions: mouse, in vivo; cited from earlier work
[1] = human, in vivo
Experimental: (§1) Study Outcomes: Safety was compared to evaluate the number, frequency, duration, and relation of toxicity events to CURC and UA, as defined by the Common Terminology Criteria for Adverse Events (CTCAE) v 4.03. […] We also investigated the impact on the microbiome in a paired analysis for change and overall theme of imputed bacterial function.
Measurement of Compounds: The compounds and their metabolites were measured using an UHPLC-MS/MS system performed on a Hybrid quadrupole-Orbitrap mass spectrometer (Q Exactive, Thermo Scientific, Waltham, MA, USA) hyphenated with a Thermo Scientific Vanquish Flex ultrahigh-pressure liquid chromatography (UHPLC) system via electrospray ionization source. For the parallel reaction monitoring (PRM) scan, the resolution, auto gain control (AGC) target, and maximum injection time (IT) were set at 17500, 2e5, and 100 ms. The All-Ion Fragmentation (AIF) scan consisted of a scan range of m/z 100-750 with NCE 10. The resolution, AGC target, and maximum IT for the AIF scan were set at 70000, 3e6, and 200 ms, respectively.
Statistical Analysis: Demographics between groups was compared using the Fischer Exact test for categorical variables and the Student's t-test for continuous variables. Safety laboratory values were analyzed using a paired t-test for differences, with significance set at p<0.05. ANOVA was used to compare plasma levels of UA, CURC, and CURC metabolites. Least significant difference (LSD) was used as the post hoc analysis test to compare values between groups.

[2] = Phase 1 clinical trial, safety laboratory values (week 2 minus baseline); format: in vivo, human
Excerpt: Laboratory Safety values. We perform laboratory analysis at baseline and at the end of the two-week study. We then subtracted the values (week 2-baseline) to obtain the differences for each participant.

[3] = human, in vivo; remark: listed apart in the source
Excerpt: Population and Recruitment: We recruited healthy men enrolled in the SABOR study, which is a community-based prostate cancer screening cohort. The San Antonio Biomarkers of Risk (SABOR) study cohort was funded by the National Cancer Institute Early Detection Research Network-sponsored Clinical and Epidemiologic Validation Center since its nascent enrollment in 2000 (IRB #HSC20000030H). A separate IRB was approved for the phase 1 trial (IRB #HSC20190940H). Subjects had no prior diagnosis of prostate cancer at the time of enrollment and varied prostate cancer risk profiles. We used the local UT Health San Antonio Data Safety and Monitoring Board (DSMB).
as §1
Common Terminology Criteria for Adverse Events (CTCAE) v 4.03. […] A creatinine rise would indicate kidney dysfunction.

prostate tumor = conditions: 7-year period, men taking the drug daily; cited from earlier work
[4] = week 2 minus baseline, median (IQR), n = 6

Q: For `C[C@H]1[C@H](C)CC[C@]2(C(=O)O)CC[C@]3(C)C(=CC[C@@H]4[C@@]5(C)CC[C@H](O)C(C)(C)[C@@H]5CC[C@]43C)[C@H]12` [Ursolic Acid, ursolic acid], which “Effect on prostate cancer in TRAMP mice” value (prostate cancer) is on record?
A: inhibited initiation, progression, and metastasis of prostate cancer

Q: And the “Plasma levels in words (FIG. 2)” value [1]?
A: modest absorption of ursolic acid

Q: And the “Median plasma values of CURC and its metabolites” value ([1]; male, 14 day)?
A: 0.0 ng/mL

Q: And the “Difference in ALT” value [2, 4]?
A: 1.5 (1.0 to 12.8)

Q: And the “Difference in AST” value [2, 4]?
A: 2.0 (−1.3 to 3.3)

Q: What about the “Difference in Albumin” value [2, 4] of the same compound?
A: 0.0 (−0.1 to 0.2)

Q: And the “Difference in Alkaline Phosphatase” value [2, 4]?
A: 2.5 (−2.5 to 5.0)

Q: What about the “Difference in Bicarbonate” value [2, 4] of the same compound?
A: 1.0 (−1.5 to 3.0)

Q: And the “Difference in Bilirubin” value [2, 4]?
A: 0.0 (−0.08 to 0.15)

Q: What about the “Difference in Calcium” value [2, 4] of the same compound?
A: 0.03 (−0.05 to 0.48)

Q: What about the “Difference in Chloride” value [2, 4] of the same compound?
A: −1.0 (−2.75 to 1.75)

Q: And the “Difference in Creatinine” value [2, 4]?
A: −0.08 (−0.33 to 0.12)

Q: What about the “Difference in Glomerular Filtration Rate (GFR)” value [2, 4] of the same compound?
A: −3.5 (−10.3 to 3.5)

Q: What about the “Difference in Hematocrit” value [2, 4] of the same compound?
A: 1.55 (−0.85 to 2.85)

Q: And the “Difference in Hemoglobin” value [2, 4]?
A: 0.20 (−0.33 to 0.58)

Q: What about the “Difference in Platelets” value [2, 4] of the same compound?
A: 9.5 (2.5 to 27)

Q: And the “Difference in Sodium” value [2, 4]?
A: 0.5 (−1.5 to 2.25)

Q: What does the source list for `COc1cc(/C=C/C(=O)CC(=O)/C=C/c2ccc(O)c(OC)c2)ccc1O` [Curcumin, curcumin]?
A: Plasma levels in words (FIG. 2) [1]: Minimal amounts of the parent curcumin compound and large amounts of curcumin glucuronide; GFR after 2 weeks, individual participant ([2]; curcumin arm participant baseline 45, CurcUA participant baseline 76): 46; Difference in ALT [2, 4]: −1.0 (−3.25 to 0.0); Difference in AST [2, 4]: 2.0 (−2.0 to 3.3); Difference in Albumin [2, 4]: 0.05 (−0.05 to 0.2); Difference in Alkaline Phosphatase [2, 4]: −2.0 (−5.5 to 9.3); Difference in Bicarbonate [2, 4]: −1.5 (−4.3 to 0.0); Difference in Bilirubin [2, 4]: −0.1 (−0.3 to 0.0); Difference in Calcium [2, 4]: 0.2 (−0.15 to 0.32); Difference in Chloride [2, 4]: −0.5 (−1.3 to 0.8); Difference in Creatinine [2, 4]: 0.07 (−0 07 to 0.16); Difference in Glomerular Filtration Rate (GFR) [2, 4]: −5.5 (−12.0 to 4.5); Difference in Hematocrit [2, 4]: 0.25 (−1.45 to 2.35); Difference in Hemoglobin [2, 4]: 0.20 (−0.30 to 0.55); Difference in Platelets [2, 4]: 7.0 (−5 to 31.5); Difference in Sodium [2, 4]: 0.0 (−1.5 to 1.0); Difference in White blood cell (WBC) [2, 4]: 0.15 (−0.43 to 0.68); Relationship To Study Treatment [3]: Unlikely

Q: Which “Reduction in prostate tumor prevalence” value (prostate tumor) does the source give for `CC(C)(C)NC(=O)[C@H]1CC[C@H]2[C@@H]3CC[C@H]4NC(=O)C=C[C@]4(C)[C@H]3CC[C@]12C` [Finasteride] here?
A: 24.8%

— patent publication US20250295615A1 (BOARD OF REGENTS, THE UNIVERSITY OF TEXAS SYSTEM, priority 2021, published 2025)
